Here are results for 18 molecules from US8501946B2 (Glaxo Group Limited, priority 2009, dated 2013).

The target of assay [1] is T1, human recombinant P2X7 receptors (Homo sapiens, UniProt Q99572).
T1 construct: expressed in transfected cells
T1 sequence (Q99572 1-595): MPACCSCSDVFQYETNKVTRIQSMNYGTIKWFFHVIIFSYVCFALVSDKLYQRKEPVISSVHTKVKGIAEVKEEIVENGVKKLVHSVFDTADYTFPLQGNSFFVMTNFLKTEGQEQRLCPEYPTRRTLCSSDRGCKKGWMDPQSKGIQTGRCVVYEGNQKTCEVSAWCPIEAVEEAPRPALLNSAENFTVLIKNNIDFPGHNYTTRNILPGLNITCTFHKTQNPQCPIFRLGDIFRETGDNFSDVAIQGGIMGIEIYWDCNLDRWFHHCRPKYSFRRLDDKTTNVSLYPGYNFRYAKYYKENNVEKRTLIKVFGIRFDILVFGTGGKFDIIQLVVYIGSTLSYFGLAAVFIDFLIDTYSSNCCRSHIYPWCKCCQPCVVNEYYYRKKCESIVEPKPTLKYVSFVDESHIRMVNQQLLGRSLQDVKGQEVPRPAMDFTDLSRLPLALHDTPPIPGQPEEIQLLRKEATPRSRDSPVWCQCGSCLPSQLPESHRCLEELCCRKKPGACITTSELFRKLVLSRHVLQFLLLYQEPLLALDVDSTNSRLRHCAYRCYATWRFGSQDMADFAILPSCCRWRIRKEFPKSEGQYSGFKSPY
Description: Ethidium Accumulation Assay 1 (HEK293 cells, ATP-induced ethidium uptake). The class given is cell-based. Conditions: HEK293 cells expressing human P2X7; 1 mM ATP; sometimes mean of more than one measurement; read-out: Assay 1 (antagonist pIC50 for blocking ATP responses) (converted).

The target of assay [2] is T1, human recombinant P2X7 receptors. Description: Ethidium Accumulation Assay 2 (HEK293 cells, ATP-induced ethidium uptake). The class given is cell-based. Conditions: HEK293 cells expressing human P2X7; sometimes mean of more than one measurement; read-out: Assay 2 (antagonist pIC50 for blocking ATP responses) (converted). Summed up:
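Stably transfected HEK293 cells expressing human P2X7 were preincubated with test antagonist 30 min at room temperature (19-21° C.), then stimulated with ATP solution (50 μM). Ethidium uptake was measured, and pIC50 values for block of ATP responses were derived by iterative curve fitting.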

For the molecule `O=C(c1cccc(C(F)(F)F)c1Cl)N1CCn2c(nnc2-c2cccnn2)C1` [Example 44, 7-{[2-chloro-3-(trifluoromethyl)phenyl]carbonyl}-3-(3-pyridazinyl)-5,6,7,8-tetrahydro[1,2,4]triazolo [4,3-a]pyrazine], the IC50 in assay [1] and in assay [2] was < 100 nM each time.

On to `O=C(c1ccc(F)cc1Cl)N1CCn2c(nnc2-c2cccc(Cl)c2)C1` [Example 126, 7-[(2-chloro-4-fluorophenyl)carbonyl]-3-(3-chlorophenyl)-5,6,7,8-tetrahydro[1,2,4]triazolo[4,3-a]pyrazine], for which the IC50 in assay [1] and in assay [2] was < 100 nM each time.

On to `O=C(c1cccc(C(F)(F)F)c1Cl)N1CCn2c(nnc2-c2ccc(F)cn2)C1` [Example 45, 7-{[2-chloro-3-(trifluoromethyl)phenyl]carbonyl}-3-(5-fluoro-2-pyridinyl)-5,6,7,8-tetrahydro[1,2,4]triazolo[4,3-a]pyrazine], for which the IC50 in assay [1] and in assay [2] was < 10 nM throughout.

For `Cc1nnc2n1CCN(C(=O)c1cccc(C(F)(F)F)c1Cl)C2` [Example 15, 7-{[2-Chloro-3-(trifluoromethyl)phenyl]carbonyl}-3-methyl-5,6,7,8-tetrahydro[1,2,4]triazolo[4,3-a]pyrazine], the IC50 in assay [1] is < 100 nM; in assay [2] it was < 501 nM.

For the molecule `O=C(c1ccc(F)c(Cl)c1Cl)N1CCn2c(nnc2-c2ccc(F)cn2)C1` [Example 114, 7-[(2,3-Dichloro-4-fluorophenyl)carbonyl]-3-(5-fluoro-2-pyridinyl)-5,6,7,8-tetrahydro[1,2,4]triazolo[4,3-a]pyrazine], the IC50 in assay [1] and in assay [2] was < 10 nM each time.

As for `O=C(c1ccc(Cl)c(F)c1Cl)N1CCn2c(nnc2-c2cnccn2)C1` [Example 111, 7-[(2,4-Dichloro-3-fluorophenyl)carbonyl]-3-(2-pyrazinyl)-5,6,7,8-tetrahydro[1,2,4]triazolo[4,3-a]pyrazine], the IC50 in assay [1] and in assay [2] was < 10 nM in each case.

`CCc1nnc2n1CCN(C(=O)c1cccc(C(F)(F)F)c1Cl)C2` [Example 4, 7-{[2-chloro-3-(trifluoromethyl)phenyl]carbonyl}-3-ethyl-5,6,7,8-tetrahydro[1,2,4]triazolo [4,3-a]pyrazine]: the IC50 in assay [1] and in assay [2] was < 100 nM in each case.

For `O=C(c1cccc(C(F)(F)F)c1Cl)N1CCn2cnnc2C1` [Example 3, 7-{[2-chloro-3-(trifluoromethyl)phenyl]carbonyl}-5,6,7,8-tetrahydro[1,2,4]triazolo [4,3-a]pyrazine], the IC50 in assay [1] and in assay [2] was < 501 nM throughout.

For `O=C(c1ccc(Cl)c(F)c1Cl)N1CCn2c(nnc2-c2nccs2)C1` [Example 187, 7-[(2,4-Dichloro-3-fluorophenyl)carbonyl]-3-(1,3-thiazol-2-yl)-5,6,7,8-tetrahydro[1,2,4]triazolo[4,3-a]pyrazine], the IC50 in assay [2] was < 10 nM.

`O=C(c1ccc(F)cc1Br)N1CCn2c(nnc2-c2cnccn2)C1` [Example 147, 7-[(2-bromo-4-fluorophenyl)carbonyl]-3-(2-pyrazinyl)-5,6,7,8-tetrahydro[1,2,4]triazolo[4,3-a]pyrazine]: the IC50 in assay [2] is < 10 nM.

With `Cc1c(C(=O)N2CCn3c(nnc3-c3nccs3)C2)ccc(F)c1Cl` [Example 201, 7-[(3-Chloro-4-fluoro-2-methylphenyl)carbonyl]-3-(1,3-thiazol-2-yl)-5,6,7,8-tetrahydro[1,2,4]triazolo[4,3-a]pyrazine], in assay [2], the IC50 is < 10 nM.

As to `O=C(c1ccc(F)cc1Cl)N1CCn2c(nnc2-c2cnc(F)cn2)C1` [Example 165, 7-[(2-chloro-4-fluorophenyl)carbonyl]-3-(5-fluoro-2-pyrazinyl)-5,6,7,8-tetrahydro[1,2,4]triazolo[4,3-a]pyrazine], in assay [2], the IC50 was < 100 nM.

Take `Cc1ccnc(-c2nnc3n2CCN(C(=O)c2ccc(Cl)c(F)c2Cl)C3)c1` [Example 172, 7-[(2,4-dichloro-3-fluorophenyl)carbonyl]-3-(4-methyl-2-pyridinyl)-5,6,7,8-tetrahydro[1,2,4]triazolo[4,3-a]pyrazine]: the IC50 in assay [2] was < 100 nM.

With `O=C(c1cccc(C(F)(F)F)c1Cl)N1CCn2c(nnc2-c2ncccc2O)C1` [Example 166, 2-(7-{[2-Chloro-3-(trifluoromethyl)phenyl]carbonyl}-5,6,7,8-tetrahydro[1,2,4]triazolo[4,3-a]pyrazin-3-yl)-3-pyridinol], in assay [2], the IC50 was < 10 nM.

For `Cc1ccc(-c2nnc3n2CCN(C(=O)c2cccc(C(F)(F)F)c2Cl)C3)o1` [Example 159, 7-{[2-chloro-3-(trifluoromethyl)phenyl]carbonyl}-3-(5-methyl-2-furanyl)-5,6,7,8-tetrahydro[1,2,4]triazolo[4,3-a]pyrazine], the IC50 in assay [2] was < 10 nM.

In the case of `Cc1cc(Cl)ccc1C(=O)N1CCn2c(nnc2-c2cnccn2)C1` [Example 145, 7-[(4-chloro-2-methylphenyl)carbonyl]-3-(2-pyrazinyl)-5,6,7,8-tetrahydro[1,2,4]triazolo[4,3-a]pyrazine], in assay [2], the IC50 was < 100 nM.

On to `O=C(c1ccc(Cl)c(F)c1Cl)N1CCn2c(nnc2-c2cscn2)C1` [Example 149, 7-[(2,4-dichloro-3-fluorophenyl)carbonyl]-3-(1,3-thiazol-4-yl)-5,6,7,8-tetrahydro[1,2,4]triazolo[4,3-a]pyrazine], for which the IC50 in assay [2] was < 10 nM.

As for `O=C(c1ccc(F)c(Cl)c1Cl)N1CCn2c(nnc2-c2ncns2)C1` [Example 169, 7-[(2,3-dichloro-4-fluorophenyl)carbonyl]-3-(1,2,4-thiadiazol-5-yl)-5,6,7,8-tetrahydro[1,2,4]triazolo[4,3-a]pyrazine], the IC50 in assay [2] is < 10 nM.
